Values of other authors, collected in paper PMC12525602, “Identification of Selective α-Glucosidase Inhibitors via Virtual Screening with Machine Learning” (Molecules, 2025).

Tested on: α-glucosidase
Conditions: activity label in the 300-compound modeling dataset (Table S5); 1 = active, 0 = inactive; cited from earlier work

activity, 1:
COc1cccc(C(=O)C2C(O)c3ccccc3S(=O)(=O)N2CC(=O)Nc2cccc(C)c2)c1 (stereo not drawn) [compound 196]
Cc1ccc(-c2cc(C(F)(F)F)nn2-c2ccc(S(=O)(=O)NC(=O)c3ccccc3)cc2)cc1 [compound 197]
COc1ccc(OC)c(/C(CSc2nnc3c(n2)[nH]c2ccccc23)=N\c2nnc(-c3cc(Br)ccc3OC)s2)c1 [compound 198]
COc1ccc(Br)cc1-c1nnc(/N=C(/CSc2nnc3c(n2)[nH]c2ccccc23)c2ccccc2[N+](=O)[O-])s1 [compound 199]
Cc1ccc(-c2cc(C(F)(F)F)nn2-c2ccc(S(=O)(=O)NC(=O)c3cccc([N+](=O)[O-])c3)cc2)cc1 [compound 200]
Cc1ccc(-c2cc(C(F)(F)F)nn2-c2ccc(S(=O)(=O)NC(=O)c3ccccc3[N+](=O)[O-])cc2)cc1 [compound 201]
COc1cccc(C(=O)C2C(O)c3ccccc3S(=O)(=O)N2CC(=O)Nc2ccc(Br)cc2)c1 (stereo not drawn) [compound 202]
Oc1cccc(-c2cc3cccc(Cl)c3o2)c1 [compound 203]
COc1cc(/C=C/C(=O)O)cc(-c2cc(/C=C/C(=O)O)cc(OC)c2O)c1O [compound 205]
O=C(NNS(=O)(=O)c1ccc(F)cc1)c1cc2cc(F)ccc2[nH]1 [compound 207]
Cc1ccc(-c2cc(C(F)(F)F)nn2-c2ccc(S(=O)(=O)NC(=O)c3ccc(Br)cc3)cc2)cc1 [compound 208]
Oc1cccc(-c2cc3cccc(Br)c3o2)c1 [compound 209]
COc1cc(/C=C/C(=O)O)ccc1O/C(=C\c1cc(OC)c(O)c(-c2cc(/C=C/C(=O)O)cc(OC)c2O)c1)C(=O)O [compound 210]
O=C1CC(c2ccc(O)cc2)Oc2cc(O)cc(O)c21 (stereo not drawn) [compound 211]
Oc1cc(O)cc(-c2cc3cccc(Cl)c3o2)c1 [compound 212]
COc1ccc(/C(CSc2nnc3c(n2)[nH]c2ccccc23)=N\c2nnc(-c3ccccc3[N+](=O)[O-])s2)cc1 [compound 213]
O=C(COc1c(I)cc(Cl)c2cccnc12)c1ccccc1 [compound 214]
CC(C)(C)c1ccc(-c2csc(N/N=C/c3ccccc3OCc3cc4ccccc4oc3=O)n2)cc1 [compound 215]
COc1ccc(/C(CSc2nnc3c(n2)[nH]c2ccccc23)=N\c2nnc(-c3ccc([N+](=O)[O-])cc3)s2)cc1 [compound 217]
O=c1c(O)c(-c2ccc(O)cc2)oc2c(O)c(O)cc(O)c12 [compound 219]
C=C(C)[C@@H]1CCC2=Cc3nc(NC(=O)c4ccc(Cl)cc4)sc3[C@@H](C)[C@]2(C)C1 [compound 220]
Oc1c(Cl)cc(Cl)cc1-c1nnc(/N=C(/CSc2nnc3c(n2)[nH]c2ccccc23)c2ccc(-c3ccccc3)cc2)s1 [compound 221]
O=[N+]([O-])c1ccccc1-c1nnc(/N=C(/CSc2nnc3c(n2)[nH]c2ccccc23)c2ccc(-c3ccccc3)cc2)s1 [compound 223]
COc1cc(/C=N/N=C2\C(=O)Nc3ccccc32)ccc1OCc1cn(Cc2ccccc2)nn1 [compound 224]
O=C(CCc1ccc(NS(=O)(=O)c2ccc(C(F)(F)F)cc2)cc1)N1CC[C@H](O)[C@H](O)C1 [compound 225]
O=C(NNS(=O)(=O)c1ccccc1F)c1cc2cc(F)ccc2[nH]1 [compound 226]
Fc1ccc(CNc2cccc(-c3nc4ccccc4[nH]3)c2)cc1 [compound 227]
